Reference: patent US20250243180A1, “TARGETED PROTEIN DEGRADATION” (Monte Rosa Therapeutics AG, priority 2023, published 2025)

Each molecule was assayed against NEK7 (Homo sapiens (Human), UniProt Q8TDX7+Q96SW2) (assay: NEK7 NanoBiT degradation assay in Cal51 NEK7 NanoBiT cell line). Conditions: CAL-51; Cal51 NEK7 NanoBiT cells, 24 hours; read-out: NEK7 NanoBiT Dmax.
Chain of NEK7 (Q8TDX7 whole entry): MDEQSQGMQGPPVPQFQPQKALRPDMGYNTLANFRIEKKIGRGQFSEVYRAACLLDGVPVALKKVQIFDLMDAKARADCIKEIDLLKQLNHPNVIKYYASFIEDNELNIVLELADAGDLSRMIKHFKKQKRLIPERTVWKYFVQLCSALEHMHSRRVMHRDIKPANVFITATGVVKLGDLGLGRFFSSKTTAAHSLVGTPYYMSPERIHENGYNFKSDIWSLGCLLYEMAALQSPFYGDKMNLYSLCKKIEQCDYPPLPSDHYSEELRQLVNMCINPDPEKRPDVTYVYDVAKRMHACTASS
Chain of NEK7 (Q96SW2 whole entry): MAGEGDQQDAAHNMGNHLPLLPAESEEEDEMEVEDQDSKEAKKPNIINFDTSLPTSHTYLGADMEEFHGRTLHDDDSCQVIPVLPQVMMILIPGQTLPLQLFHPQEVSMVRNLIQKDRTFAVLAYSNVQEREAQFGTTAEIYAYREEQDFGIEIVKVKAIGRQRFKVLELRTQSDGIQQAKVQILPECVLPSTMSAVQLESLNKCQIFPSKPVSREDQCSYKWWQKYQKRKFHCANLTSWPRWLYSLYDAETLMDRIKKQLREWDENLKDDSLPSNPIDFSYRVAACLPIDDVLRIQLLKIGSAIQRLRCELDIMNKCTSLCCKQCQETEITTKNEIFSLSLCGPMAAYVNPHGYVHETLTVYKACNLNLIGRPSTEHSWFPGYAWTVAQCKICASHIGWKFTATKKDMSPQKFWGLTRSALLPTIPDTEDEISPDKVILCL
Chain of NEK7 (Q16531 2-1140 partner): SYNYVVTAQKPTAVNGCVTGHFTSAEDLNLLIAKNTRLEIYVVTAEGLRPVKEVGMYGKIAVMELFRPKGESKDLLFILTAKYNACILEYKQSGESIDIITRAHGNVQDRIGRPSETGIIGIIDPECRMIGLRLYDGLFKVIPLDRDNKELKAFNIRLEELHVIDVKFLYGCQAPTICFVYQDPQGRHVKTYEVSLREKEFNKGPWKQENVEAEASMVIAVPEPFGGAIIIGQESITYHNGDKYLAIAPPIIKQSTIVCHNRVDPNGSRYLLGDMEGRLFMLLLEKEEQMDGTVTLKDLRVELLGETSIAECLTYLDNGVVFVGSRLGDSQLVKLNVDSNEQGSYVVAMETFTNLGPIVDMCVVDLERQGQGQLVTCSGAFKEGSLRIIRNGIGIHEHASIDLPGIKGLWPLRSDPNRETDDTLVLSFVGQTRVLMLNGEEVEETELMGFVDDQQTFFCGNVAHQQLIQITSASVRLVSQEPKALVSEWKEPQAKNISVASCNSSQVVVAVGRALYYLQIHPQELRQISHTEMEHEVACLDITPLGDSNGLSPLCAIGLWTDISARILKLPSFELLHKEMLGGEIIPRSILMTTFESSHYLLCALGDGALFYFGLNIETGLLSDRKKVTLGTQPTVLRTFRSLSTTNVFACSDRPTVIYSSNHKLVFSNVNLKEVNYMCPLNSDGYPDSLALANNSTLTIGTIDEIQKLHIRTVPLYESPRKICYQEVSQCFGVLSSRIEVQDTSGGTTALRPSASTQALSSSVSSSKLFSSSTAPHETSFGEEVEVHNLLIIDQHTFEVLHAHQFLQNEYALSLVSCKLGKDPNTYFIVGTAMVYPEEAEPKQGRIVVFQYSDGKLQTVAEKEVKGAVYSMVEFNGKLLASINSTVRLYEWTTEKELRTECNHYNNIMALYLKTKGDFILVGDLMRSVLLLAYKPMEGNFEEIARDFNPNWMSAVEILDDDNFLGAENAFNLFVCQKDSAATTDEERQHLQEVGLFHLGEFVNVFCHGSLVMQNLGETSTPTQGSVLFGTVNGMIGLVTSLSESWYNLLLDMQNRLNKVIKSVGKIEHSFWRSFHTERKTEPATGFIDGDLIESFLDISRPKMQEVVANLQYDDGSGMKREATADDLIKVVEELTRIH
Type: cell-based
Method in brief: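 Cal51 cells with CRISPR knock-in HiBiT-tagged endogenous NEK7 plus stable LgBiT, in live-cell Endurazine medium, seeded 16 h before dosing. Compounds at final 1 μM to 0.05 nM for 24 h at 37 °C, then luminescence read. Response normalized to plate controls and fitted with a 4-parameter logistic giving EC50.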
`CC(C)(C(=O)NCc1cc(Cl)c(C2CCC(=O)NC2=O)c(Cl)c1)c1ccc2[nH]ncc2c1` (stereo not drawn) [Compound 70] gave a Dmax of 97%.
With `CN(C)c1ccc(C(C)(C)C(=O)NCc2cc(Cl)c(C3CCC(=O)NC3=O)c(Cl)c2)cc1` (stereo not drawn) [Compound 71] the Dmax was 90%.
`Cn1c(=O)[nH]c2cc(C(C)(C)C(=O)NCc3cc(Cl)c(C4CCC(=O)NC4=O)c(Cl)c3)ccc21` (stereo not drawn) [Compound 72] was tested, and the Dmax was 90%.
`CC(C)(C(=O)NCc1cc(Cl)c(C2CCC(=O)NC2=O)c(Cl)c1)c1cc(F)nc(F)c1` (stereo not drawn) [Compound 73] gave a Dmax of 93%.
`CC(C)(C(=O)NCc1cc(Cl)c(C2CCC(=O)NC2=O)c(Cl)c1)c1ccc2ncsc2c1` (stereo not drawn) [Compound 74] was tested, and the Dmax was 97%.
Work on `Cn1ccc(C(C)(C)C(=O)NCc2cc(Cl)c(C3CCC(=O)NC3=O)c(Cl)c2)cc1=O` (stereo not drawn) [Compound 75] yielded a Dmax of 92%.
With `CC(C)(C(=O)NCc1cc(Cl)c(C2CCC(=O)NC2=O)c(Cl)c1)c1ccc2[nH]c(=O)oc2c1` (stereo not drawn) [Compound 77] the Dmax was 95%.
Molecule `Cn1ncc2ccc(C(C)(C)C(=O)NCc3cc(Cl)c(C4CCC(=O)NC4=O)c(Cl)c3)cc21` (stereo not drawn) [Compound 78] has a Dmax of 97%.
In the case of `CC(C)(C(=O)NCc1cc(Cl)c(C2CCC(=O)NC2=O)c(Cl)c1)c1ccc(=O)[nH]c1` (stereo not drawn) [Compound 79], the Dmax is reported as 83%.

Same assay, conditions: CAL-51; NEK7 degradation, Cal51 NEK7 NanoBiT cells, 24 hours; read-out: NanoBiT Dmax
With `CC(C)(C(=O)NCc1cc(Cl)c(C2CCC(=O)NC2=O)c(Cl)c1)c1ccc2[nH]ncc2c1` (stereo not drawn) [Compound 70] the Dmax was greater than 75%.
`CN(C)c1ccc(C(C)(C)C(=O)NCc2cc(Cl)c(C3CCC(=O)NC3=O)c(Cl)c2)cc1` (stereo not drawn) [Compound 71] showed a Dmax greater than 75%.
In the case of `Cn1c(=O)[nH]c2cc(C(C)(C)C(=O)NCc3cc(Cl)c(C4CCC(=O)NC4=O)c(Cl)c3)ccc21` (stereo not drawn) [Compound 72], the Dmax is reported as greater than 75%.
`CC(C)(C(=O)NCc1cc(Cl)c(C2CCC(=O)NC2=O)c(Cl)c1)c1cc(F)nc(F)c1` (stereo not drawn) [Compound 73] showed a Dmax greater than 75%.
In the case of `CC(C)(C(=O)NCc1cc(Cl)c(C2CCC(=O)NC2=O)c(Cl)c1)c1ccc2ncsc2c1` (stereo not drawn) [Compound 74], the Dmax is reported as greater than 75%.
`Cn1ccc(C(C)(C)C(=O)NCc2cc(Cl)c(C3CCC(=O)NC3=O)c(Cl)c2)cc1=O` (stereo not drawn) [Compound 75] showed a Dmax greater than 75%.
With `CC(C)(C(=O)NCc1cc(Cl)c(C2CCC(=O)NC2=O)c(Cl)c1)c1ccc2[nH]c(=O)oc2c1` (stereo not drawn) [Compound 77] the Dmax was greater than 75%.
For `Cn1ncc2ccc(C(C)(C)C(=O)NCc3cc(Cl)c(C4CCC(=O)NC4=O)c(Cl)c3)cc21` (stereo not drawn) [Compound 78], the Dmax was greater than 75%.
In the case of `CC(C)(C(=O)NCc1cc(Cl)c(C2CCC(=O)NC2=O)c(Cl)c1)c1ccc(=O)[nH]c1` (stereo not drawn) [Compound 79], the Dmax is reported as greater than 75%.

Same assay, conditions: Cal51 NEK7 NanoBiT cells, 24 hours; read-out: NEK7 NanoBiT DC50
In the case of `CC(C)(C(=O)NCc1cc(Cl)c(C2CCC(=O)NC2=O)c(Cl)c1)c1ccc2[nH]ncc2c1` (stereo not drawn) [Compound 70], the DC50 is reported as 0.0005 µM.
With `CN(C)c1ccc(C(C)(C)C(=O)NCc2cc(Cl)c(C3CCC(=O)NC3=O)c(Cl)c2)cc1` (stereo not drawn) [Compound 71] the DC50 was 0.009 µM.
`Cn1c(=O)[nH]c2cc(C(C)(C)C(=O)NCc3cc(Cl)c(C4CCC(=O)NC4=O)c(Cl)c3)ccc21` (stereo not drawn) [Compound 72] gave a DC50 of 0.011 µM.
For `CC(C)(C(=O)NCc1cc(Cl)c(C2CCC(=O)NC2=O)c(Cl)c1)c1cc(F)nc(F)c1` (stereo not drawn) [Compound 73], the DC50 was 0.004 µM.
`CC(C)(C(=O)NCc1cc(Cl)c(C2CCC(=O)NC2=O)c(Cl)c1)c1ccc2ncsc2c1` (stereo not drawn) [Compound 74] was tested, and the DC50 was 0.001 µM.
Work on `Cn1ccc(C(C)(C)C(=O)NCc2cc(Cl)c(C3CCC(=O)NC3=O)c(Cl)c2)cc1=O` (stereo not drawn) [Compound 75] yielded a DC50 of 0.014 µM.
Work on `CC(C)(C(=O)NCc1cc(Cl)c(C2CCC(=O)NC2=O)c(Cl)c1)c1ccc2[nH]c(=O)oc2c1` (stereo not drawn) [Compound 77] yielded a DC50 of 0.003 µM.
In the case of `Cn1ncc2ccc(C(C)(C)C(=O)NCc3cc(Cl)c(C4CCC(=O)NC4=O)c(Cl)c3)cc21` (stereo not drawn) [Compound 78], the DC50 is reported as 0.0004 µM.
`CC(C)(C(=O)NCc1cc(Cl)c(C2CCC(=O)NC2=O)c(Cl)c1)c1ccc(=O)[nH]c1` (stereo not drawn) [Compound 79] showed a DC50 of 0.092 µM.

Same assay, conditions: NEK7 degradation, Cal51 NEK7 NanoBiT cells, 24 hours; read-out: NanoBiT DC50
`CC(C)(C(=O)NCc1cc(Cl)c(C2CCC(=O)NC2=O)c(Cl)c1)c1ccc2[nH]ncc2c1` (stereo not drawn) [Compound 70] was tested, and the DC50 was no more than 0.1 µM.
`CN(C)c1ccc(C(C)(C)C(=O)NCc2cc(Cl)c(C3CCC(=O)NC3=O)c(Cl)c2)cc1` (stereo not drawn) [Compound 71] was tested, and the DC50 was no more than 0.1 µM.
`Cn1c(=O)[nH]c2cc(C(C)(C)C(=O)NCc3cc(Cl)c(C4CCC(=O)NC4=O)c(Cl)c3)ccc21` (stereo not drawn) [Compound 72] gave a DC50 of no more than 0.1 µM.
`CC(C)(C(=O)NCc1cc(Cl)c(C2CCC(=O)NC2=O)c(Cl)c1)c1cc(F)nc(F)c1` (stereo not drawn) [Compound 73] was tested, and the DC50 was no more than 0.1 µM.
In the case of `CC(C)(C(=O)NCc1cc(Cl)c(C2CCC(=O)NC2=O)c(Cl)c1)c1ccc2ncsc2c1` (stereo not drawn) [Compound 74], the DC50 is reported as no more than 0.1 µM.
For `Cn1ccc(C(C)(C)C(=O)NCc2cc(Cl)c(C3CCC(=O)NC3=O)c(Cl)c2)cc1=O` (stereo not drawn) [Compound 75], the DC50 was no more than 0.1 µM.
In the case of `CC(C)(C(=O)NCc1cc(Cl)c(C2CCC(=O)NC2=O)c(Cl)c1)c1ccc2[nH]c(=O)oc2c1` (stereo not drawn) [Compound 77], the DC50 is reported as no more than 0.1 µM.
`Cn1ncc2ccc(C(C)(C)C(=O)NCc3cc(Cl)c(C4CCC(=O)NC4=O)c(Cl)c3)cc21` (stereo not drawn) [Compound 78] gave a DC50 of no more than 0.1 µM.
`CC(C)(C(=O)NCc1cc(Cl)c(C2CCC(=O)NC2=O)c(Cl)c1)c1ccc(=O)[nH]c1` (stereo not drawn) [Compound 79] was tested, and the DC50 was no more than 0.1 µM.

Each molecule was assayed against CRBN-DDB1 (Homo sapiens (Human), UniProt Q96SW2) (assay: Compound binding to CRBN by HTRF assay). Conditions: not given.
Chain of CRBN-DDB1 (Q96SW2 whole entry): as the sequence (Q96SW2 whole entry) above
Chain of CRBN-DDB1 (Q16531 whole entry partner): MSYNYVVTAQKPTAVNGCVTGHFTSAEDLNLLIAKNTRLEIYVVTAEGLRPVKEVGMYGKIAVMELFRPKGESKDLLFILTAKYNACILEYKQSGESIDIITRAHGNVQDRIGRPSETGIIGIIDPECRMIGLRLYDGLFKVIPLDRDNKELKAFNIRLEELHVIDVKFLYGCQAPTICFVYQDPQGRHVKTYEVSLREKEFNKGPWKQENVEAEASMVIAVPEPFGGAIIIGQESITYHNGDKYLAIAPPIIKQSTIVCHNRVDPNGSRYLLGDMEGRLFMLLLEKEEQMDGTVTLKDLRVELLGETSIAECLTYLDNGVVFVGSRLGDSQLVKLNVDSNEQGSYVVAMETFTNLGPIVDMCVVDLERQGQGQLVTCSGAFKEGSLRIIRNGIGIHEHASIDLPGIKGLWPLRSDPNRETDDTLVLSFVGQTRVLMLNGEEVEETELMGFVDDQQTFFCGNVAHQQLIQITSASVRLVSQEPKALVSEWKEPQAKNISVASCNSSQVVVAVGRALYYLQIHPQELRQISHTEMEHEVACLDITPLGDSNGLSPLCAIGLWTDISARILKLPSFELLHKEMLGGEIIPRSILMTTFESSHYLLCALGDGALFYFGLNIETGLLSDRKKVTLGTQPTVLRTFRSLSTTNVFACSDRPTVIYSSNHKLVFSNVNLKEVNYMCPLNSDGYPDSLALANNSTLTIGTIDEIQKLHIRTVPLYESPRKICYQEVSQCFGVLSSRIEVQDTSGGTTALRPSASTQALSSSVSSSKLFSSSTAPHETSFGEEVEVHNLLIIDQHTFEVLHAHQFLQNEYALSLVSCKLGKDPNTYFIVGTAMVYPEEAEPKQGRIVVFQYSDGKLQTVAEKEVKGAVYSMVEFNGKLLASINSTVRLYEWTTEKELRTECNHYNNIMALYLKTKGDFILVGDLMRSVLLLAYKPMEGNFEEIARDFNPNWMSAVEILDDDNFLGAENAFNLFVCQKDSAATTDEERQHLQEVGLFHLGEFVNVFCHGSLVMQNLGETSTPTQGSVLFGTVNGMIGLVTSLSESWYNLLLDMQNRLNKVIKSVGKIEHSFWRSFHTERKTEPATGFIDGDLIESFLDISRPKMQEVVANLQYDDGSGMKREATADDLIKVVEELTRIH
Method in brief: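 HTRF displacement of Cy5-thalidomide probe (100 nM) from His-tagged CRBN-DDB1 (2.5 nM) with anti-His terbium cryptate, in HEPES/NaCl/TCEP/EDTA/Tween20 buffer; 11-point 1:3 dilution series, 30 min at ambient temperature. Signal (665/620 nm) normalized to lenalidomide and DMSO controls; EC50 fitted, Ki by Cheng-Prusoff from geometric mean EC50.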
`CC(C)(C(=O)NCc1cc(Cl)c(C2CCC(=O)NC2=O)c(Cl)c1)c1ccc2[nH]ncc2c1` (stereo not drawn) [Compound 70] was tested, and the EC50 was 0.06 µM.
Work on `CN(C)c1ccc(C(C)(C)C(=O)NCc2cc(Cl)c(C3CCC(=O)NC3=O)c(Cl)c2)cc1` (stereo not drawn) [Compound 71] yielded an EC50 of 0.14 µM.
Work on `Cn1c(=O)[nH]c2cc(C(C)(C)C(=O)NCc3cc(Cl)c(C4CCC(=O)NC4=O)c(Cl)c3)ccc21` (stereo not drawn) [Compound 72] yielded an EC50 of 0.47 µM.
`CC(C)(C(=O)NCc1cc(Cl)c(C2CCC(=O)NC2=O)c(Cl)c1)c1cc(F)nc(F)c1` (stereo not drawn) [Compound 73] gave an EC50 of 0.17 µM.
With `CC(C)(C(=O)NCc1cc(Cl)c(C2CCC(=O)NC2=O)c(Cl)c1)c1ccc2ncsc2c1` (stereo not drawn) [Compound 74] the EC50 was 0.03 µM.
`Cn1ccc(C(C)(C)C(=O)NCc2cc(Cl)c(C3CCC(=O)NC3=O)c(Cl)c2)cc1=O` (stereo not drawn) [Compound 75] gave an EC50 of 0.3 µM.
Work on `CC(C)(C(=O)NCc1cc(Cl)c(C2CCC(=O)NC2=O)c(Cl)c1)c1ccc2[nH]c(=O)oc2c1` (stereo not drawn) [Compound 77] yielded an EC50 of 0.07 µM.
`Cn1ncc2ccc(C(C)(C)C(=O)NCc3cc(Cl)c(C4CCC(=O)NC4=O)c(Cl)c3)cc21` (stereo not drawn) [Compound 78] showed an EC50 of 0.06 µM.
With `CC(C)(C(=O)NCc1cc(Cl)c(C2CCC(=O)NC2=O)c(Cl)c1)c1ccc(=O)[nH]c1` (stereo not drawn) [Compound 79] the EC50 was 0.25 µM.

Same assay, conditions: HTRF class; Cereblon binding
`CC(C)(C(=O)NCc1cc(Cl)c(C2CCC(=O)NC2=O)c(Cl)c1)c1ccc2[nH]ncc2c1` (stereo not drawn) [Compound 70] was tested, and the EC50 was no more than 0.1 µM.
`CN(C)c1ccc(C(C)(C)C(=O)NCc2cc(Cl)c(C3CCC(=O)NC3=O)c(Cl)c2)cc1` (stereo not drawn) [Compound 71] showed an EC50 of 0.1 to 1 µM.
With `Cn1c(=O)[nH]c2cc(C(C)(C)C(=O)NCc3cc(Cl)c(C4CCC(=O)NC4=O)c(Cl)c3)ccc21` (stereo not drawn) [Compound 72] the EC50 was 0.1 to 1 µM.
Work on `CC(C)(C(=O)NCc1cc(Cl)c(C2CCC(=O)NC2=O)c(Cl)c1)c1cc(F)nc(F)c1` (stereo not drawn) [Compound 73] yielded an EC50 of 0.1 to 1 µM.
With `CC(C)(C(=O)NCc1cc(Cl)c(C2CCC(=O)NC2=O)c(Cl)c1)c1ccc2ncsc2c1` (stereo not drawn) [Compound 74] the EC50 was no more than 0.1 µM.
Work on `Cn1ccc(C(C)(C)C(=O)NCc2cc(Cl)c(C3CCC(=O)NC3=O)c(Cl)c2)cc1=O` (stereo not drawn) [Compound 75] yielded an EC50 of 0.1 to 1 µM.
`CC(C)(C(=O)NCc1cc(Cl)c(C2CCC(=O)NC2=O)c(Cl)c1)c1ccc2[nH]c(=O)oc2c1` (stereo not drawn) [Compound 77] gave an EC50 of no more than 0.1 µM.
`Cn1ncc2ccc(C(C)(C)C(=O)NCc3cc(Cl)c(C4CCC(=O)NC4=O)c(Cl)c3)cc21` (stereo not drawn) [Compound 78] gave an EC50 of no more than 0.1 µM.
Molecule `CC(C)(C(=O)NCc1cc(Cl)c(C2CCC(=O)NC2=O)c(Cl)c1)c1ccc(=O)[nH]c1` (stereo not drawn) [Compound 79] has an EC50 of 0.1 to 1 µM.
